Data as given in patent publication US9365851B2, “Spalt-like transcription factor 4 (SALL4) and uses thereof” (National University of Singapore, priority 2011, dated 2016).
Entries after “also recorded” stand apart in the source; their conditions may differ. Like-named read-outs stand apart in the source and are kept apart here.

Columns and labels:
primary human AML cells = experiment: Viability / cell death of primary AML cells in culture (Annexin V/PI flow cytometry); assay type: cell-based; conditions: for cell death rate: 96 h after first treatment, Chariot (Example 1)
Procedure: Whether a therapeutic effect could be achieved by using this wt peptide on primary AML samples was then tested. Ninety-six hours after the first treatment of peptides (wt, Mut, or Scr) or TSA in the primary AML cells collected from a patient, the remaining alive cells were measured by FACS analysis using Annexin V/PI staining. During the treatment the wt and control peptides (Mut or Scr) were re-introduced twice at the 24-hour and the 48-hour time points along with the Chariot (Active Motif) transfection agent. A significant effect of the wt peptide on the cell viability of primary AML cells was observed. While there was a 56% cell death rate with wt peptide treatment at the end of the fourth day, the cell death rate was only 35% in the non-treated or treated with the control peptide, and the cell death rate was 44% in cells treated with TSA (FIG. 5).
Three frozen primary AML patient samples were used for this study, and were obtained from Brigham and Women's Hospital at Boston, Mass., USA, under approved IRB protocol (No. 2011-P-000096/1). Culture conditions were adapted from a published protocol 28-31. In brief, the frozen AML samples were incubated in RPMI1640 medium without serum for 1 to 3 h after thawing and DNA fragments from dead cells were removed by washing. After three washes with the medium, 1×10^6 cells per well of 12-well plate were maintained in 1 ml of serum-free medium (StemSpan-H3000, Catalogue #09800, StemCell Technologies) supplied with StemSpan CC 100 cytokine cocktail (Catalogue #02690, StemCell Technologies) that supports 40-50% viability at 72 hours postthaw culturing based on our experience. These cells were then used for the down-regulation of SALL4 (see details below) and peptide treatment experiments.
SALL4 is critical for leukemic cell survival in the AML cell line NB4 (Yang, et al., Blood, 112:805-813 (2008)). Asked herein was whether this is also the case for primary human AML samples. Three SALL4/PTEN-expressing AML samples were selected for experiments in which cells were first tested under culture conditions that maintain/promote viability of AML cells 28-31. The SALL4-specific shRNA that has been validated in previous studies (Yang et al., PLoS One, 5:e10766 (2010); Yang, et al., Blood, 112:805-813 (2008); Yang et al., PNAS USA, 104:10494-10499 (2007)) was utilized in these AML patient samples (FIG. 11A). 48 hours after transduction, the viability of cells was determined by flow cytometry after staining with Annexin V and propidium iodide (PI). Live cells are Annexin V negative and PI negative, the double negative population. […] Furthermore, in a xenotransplant model, increased survival of leukemic cell recipient NOD/SCID/IL2rγ-null (NSG) mice following knocking down SALL4 expression in the primary AML samples was observed (FIG. 11C). Fatal AML with onset ranging from one to three months developed in all recipients receiving AML cells transduced with a scrambled control shRNA (n=7), while only 2 out of 6 mice receiving SALL4 shRNA-treated primary AML developed leukemia. While the median survival of scrambled shRNA control recipient mice (n=7) was 33 days, the median survival of SALL4 shRNA recipient mice (n=6) was 109 days (P=0.01). The transplanted leukemia disease was characterized by immature blasts with human CD45 expression in peripheral blood, bone marrow, and tissues such as liver and spleen (FIG. 11D to 11F).
Next tested was whether a therapeutic effect could be achieved by using the wild type peptide in primary human AML samples. The same SALL4/PTEN expressing primary AML samples were selected for experiments under the same culture conditions as mentioned above. Leukemic cells were subjected to three treatment regimes: peptide (wild type or scrambled), peptide plus PTEN inhibitor, or HDAC inhibitor (TSA). To assist peptide delivery into cells, a carrier agent, Pep-1 was used for all the experiments, and control treated cells were given pep-1 alone (mock). […]

PTEN/AKT pathway = PTEN/AKT pathway expression in SNU-398 cells after treatment (Western blot, mRNA); assay type: cell-based, human; conditions: for PTEN protein expression / phosphorylated AKT (pAKT) level: SNU-398, Western blot
Excerpt: The induction of Pten expression was not affected when wt peptide was administrated together with a Pten inhibitor. AKT, a molecule with levels of phosphorylation controlled by the expression of Pten was affected by the wt peptide addition accordingly. […] The effect of wt peptide on pAKT was abrogated by the Pten inhibitor. […] In contrast, the protein expression level of endogenous Pten was very high in the none-SALL4 expressing SNU387 cells.
Then tested was whether this peptide could reverse the repressive effect of SALL4 on its target genes. The focus was onPTEN, since it is implicated in SALL4-mediated leukemogenesis (Yang et al., Blood, 112:805-813 (2008); Lu et al., PLoS One, 4:e5577 (2009)). In addition, it was previously reported that SALL4 could specifically bind to the PTEN promoter region in a chromatin immunoprecipitation (ChIP) assay (Lu et al., PLoS One, 4:e5577 (2009)). When SALL4 was overexpressed in 293T cells, an enrichment of SALL4 as well as decreased H3 acetylation at this binding site was observed, which correlated with decreased PTEN RNA expression (Lu et al., PLoS One, 4:e5577 (2009))). Therefore, it was hypothesized that SALL4 could recruit the HDAC/NuRD complex to repress PTEN, and that the wild type peptide would compete with endogenous SALL4 in recruiting the HDAC/NuRD complex to the PTEN promoter, and release the repression effect of SALL4 on PTEN. Furthermore, this model would predict that wild type peptide treatment of SALL4-expressing cells would lead to increased epigenetic markers of gene activation, such as H3 acetylation, at the PTEN promoter binding site, as well as an increase in PTEN expression. To test this possibility, SNU-398 cells were treated with scrambled or wild type peptide and subsequently evaluated for PTEN expression and H3 acetylation at the SALL4 binding site at the PTEN promoter region. […] Therefore, the results herein are compatible with the model that SALL4 recruits HDACs to repress PTEN expression, and blocking the SALL4-HDAC interaction with the wild type peptide results in increased expression of PTEN.
To confirm the involvement of PTEN tumor suppressor in SALL4 peptide-induced reduction of number of viable HCC cells, PTEN expression was analyzed by western blot upon drug treatment. […] Whether the increase in PTEN expression upon SALL4 peptide treatment has an effect in PI3K signalling by dephosphorylating AKT was examined.
To confirm the involvement of the PTEN tumor suppressor in the SALL4 peptide-induced reduction of HCC cell viability, PTEN expression was analyzed by western blot upon drug treatment. […] If the increase in PTEN expression has an effect in PI3K signaling was next examined. PTEN functions as a phosphatase to dephosphorylate AKT.

H-MSRRKQAKPQHI-OH [wt peptide, MSRRKQAKPQHI]
cell viability (primary human AML cells; human, 96 h): 55.3%
cell death rate (primary human AML cells; primary AML, Annexin V/PI): 56%
Pten mRNA expression (PTEN/AKT pathway; SNU-398): increased Pten mRNA expression level
elevation of PTEN expression level (PTEN/AKT pathway; SNU-398, 24 h, relative to alfa-tubulin): More than 2 times
PTEN protein expression (PTEN/AKT pathway): noticeably higher
PTEN protein expression (PTEN/AKT pathway; listed as SALL4 peptide): extensive increase in PTEN protein
phosphorylated AKT (pAKT) level (PTEN/AKT pathway; listed as SALL4 peptide): significant reduction of pAKT level; also recorded: marked reduction of phospho AKT protein levels
PTEN protein expression (PTEN/AKT pathway; listed as SALL4 peptide (wt)): extensive increased in PTEN expression
PTEN protein expression (PTEN/AKT pathway; listed as Wild type peptide): increased PTEN protein
PTEN protein expression (PTEN/AKT pathway; listed as wild type peptide): increased PTEN expression
phosphorylated AKT (pAKT) level (PTEN/AKT pathway; listed as wt): significantly reduced

GATGCCTTGAAACAAGCCAAGCTACCTCA (chemistry not given here) [compound 7412, SALL4 shRNA used in primary AML cells]
viability after SALL4 knock-down (primary human AML cells): 80.9%
increase in cell apoptosis and cell death (primary human AML cells; primary AML, Annexin V/PI, after SALL4 knock-down): 2 fold

CC(/C=C/C(=O)NO)=C\[C@@H](C)C(=O)c1ccc(N(C)C)cc1 [TSA, Trichostatin A, reference compound]
cell death rate (primary human AML cells; primary AML, Annexin V/PI): 44%
cell viability (primary human AML cells; primary AML, fourth day, Pep-1 carrier, untreated set as 100 (Example 2)): 54.7%
PTEN protein expression (PTEN/AKT pathway): also induced PTEN expression; also recorded: also induced PTEN upregulation
phosphorylated AKT (pAKT) level (PTEN/AKT pathway): significantly reduced
PTEN protein expression (PTEN/AKT pathway; listed as Trichostatin A): levels of PTEN were elevated

Scr peptide: same 12 amino acids as the wt peptide, but in a scrambled sequence; negative control (SRMRQKIHPKIQ) [reference compound]
cell viability (primary human AML cells): over 97%
cell death rate (primary human AML cells; primary AML, Annexin V/PI): the same value as the untreated
PTEN protein expression (PTEN/AKT pathway): an effect not observed
phosphorylated AKT (pAKT) level (PTEN/AKT pathway): No effect
PTEN protein expression (PTEN/AKT pathway; listed as scrambled (mutant) peptide): does not exhibit the same properties
PTEN protein expression (PTEN/AKT pathway; listed as scrambled peptide): not observed
